Assay results taken from patent US20150087722A1, “TREATMENT FOR BREAST TUMOR CELL METASTASIS” (China Medical University, priority 2012, published 2015).

Columns and labels:
[1] = system: MDA-MB-231 inoculated nude mice; assay: nude mice xenograft tumor model; assay type: in vivo, nude mice of BALB/c-nu species; conditions: about 0.75 mg/Kg injected everyday
Protocol: The in vivo experiment was performed in a nude mice xenograft tumor model. The experimental animals were nude mice of BALB/c-nu species commercially obtained from the National Laboratory Animal Center (NLAC). The nude mice were raise in a germ-free box and the light application time was 7:00-19:00. Filtered air, sterilized water and feed were supplied to and naturally eaten by the nude mice. Female nude mice which matured in 8-10 weeks were used to perform the experiment. The breast tumor cell (2×10^6/100 μl) was injected into one side of each back part of 60 nude mice in a hypodermic injection manner. After about 10 days 1-3 mm tumor was grown on each back of the nude mice, the nude mice were randomly divided into 4 groups. Three groups of nude mice were fed with the active ingredient Antrodia camphorata in different doses. The tumor growth was observed and photographed every day. The tumor volume was measured every three days. The volume was calculated according to the equation provided by Osborne et al in 1987. The experimental animals were divided into the control group (not treated), the solvent group (only physiological saline was injected) and a group injected with the compound II (the dose was about 0.75 mg/Kg). The injection was performed everyday, and the animals were fed in normal conditions and photographed for record, so as to compare the tumor growth condition of experimental animals in each group.

[2] = system: Rat Skin Tumor Cell (B16F1 cell strain); assay: MTT cell viability assay; assay type: cell-based; conditions: Mus musculus, B16-F1
[3] = system: cells stimulated by 10 ng/mL TNF-α; assay: wound scratching assay of cells stimulated by TNF-α; assay type: cell-based; conditions: 10 and 20 μM, 24 h
Protocol: In the wound scratching assay for observing cell migration, the cells MDA-MB-231 (3×10^5) were planted in a 12-well plate, and the next day the cells were washed with PBS twice. The original culture medium then was replaced by 1% FBS cell culture medium. The next day a space was scratched at the bottom of the well. The cell culture medium was removed and the cells were washed with PBS twice. 1% FBS cell culture medium and the compound II of different concentrations were added and photographs were taken after 0, 12, 24 and 36 h so as to observe migration of cells. After the reaction, the cells were fixed for 30 min using 75% ice alcohol. After the alcohol was completely volatilized, the cells were stained with Giemsa Stain. The migration number of cells was counted in three random fields (200×) under the microscope (Lin et al., 2008). […] After the breast tumor cells were treated for 0, 12, 24 and 36 h, the quantitative result of effect of the compound II on metastasis of breast tumor cells MDA-MD-231 was observed, and the data results were represented by mean±SD values, where n=3. FIG. 19 illustrates the effect of the compound II in different doses on migration of cells stimulated by 10 ng/mL TNF-α and detected by the wound scratching assay, where the cells were observed under a microscope. […]

[4] = system: Ovarian Tumor Cell (SKOV3 cell strain); assay: MTT cell viability assay; assay type: cell-based; conditions: Homo sapiens, SK-OV-3
[5] = system: MMP-9 and MMP2 generated by cells induced by TNF-α; assay: Zymography enzyme activity assay of cells stimulated by TNF-α; assay type: cell-based; conditions: 20 μM, 10 ng/mL TNF-α
Protocol: In the Zymography enzyme activity assay, the cells (1×10^6) were planted in a 6-well plate. The next day after the cells were adhered to the wall, the cells were cultured in a serum free DMEM culture medium at an atmosphere of 5% CO2 in an incubator at 37° C. for 24 h. The compound II in different doses were added into the DMEM culture medium. In other test groups, the compound I was added, TNF-α/TGF-β were added or the compound I and TNF-α/TGF-β were added into the DMEM culture medium, wherein the concentration of compound I and TNF-α/TGF-β were […] and 10 ng/ml, respectively. The cells were cultured in the culture medium for 2 h and then washed with PBS. The cell culture medium was putted into a microcentrifuge tube and centrifuged for 10 min at 1500 rpm. The supernatant was taken to perform a protein gel electrophoresis (SDS-PAGE), so as to separate the proteins. Afterwards, the Gelatin or Casein was regarded as the substrate to analysis the enzyme activity of the proteins. Referring to FIG. 20, the Zymography enzyme activity assay was performed to detect the effect of the compound II on the enzyme activity of MMP-9 and MMP2 generated by cells induced and stimulated by 10 ng/mL TNF-α. The Zymography enzyme activity assay was described as the test example 4-1. […] Cells in the test groups included no the compound II. […]

[6] = system: MMP-9, MMP2 and uPA in breast tumor cells MDA-MB-231; assay: Zymography enzyme activity assay; assay type: cell-based, human; conditions: MDA-MB-231, with dose increasing, FIG. 8B
From the text: Referring to FIG. 8B, the Zymography enzyme activity assay was used to detect effect of the compound II in different doses on enzyme activities of the MMP-9, MMP2 and uPA in the breast tumor cells MDA-MB-231. Moreover, referring to FIG. 9, the Zymography enzyme activity assay was used to detect effect of the compound I on enzyme activities of the MMP-9 and MMP2 in the human normal breast cells MCF-10A stimulated by TNF-α/TGF-β. In the Zymography enzyme activity assay, the cells (1×10^6) were planted in a 6-well plate. The next day after the cells were adhered to the wall, the cells were cultured in a serum free DMEM culture medium at an atmosphere of 5% CO2 in an incubator at 37° C. for 24 h. The compound II in different doses were added into the DMEM culture medium. In other test groups, the compound I was added, TNF-α/TGF-β were added or the compound I and TNF-α/TGF-β were added into the DMEM culture medium, wherein the concentration of compound I and TNF-α/TGF-β were 2 mM and 10 ng/ml, respectively. The cells were cultured in the culture medium for 2 h and then washed with PBS. The cell culture medium was putted into a microcentrifuge tube and centrifuged for 10 min at 1500 rpm. The supernatant was taken to perform a protein gel electrophoresis (SDS-PAGE), so as to separate the proteins. […]

IC50 [2]: 12.8 µM
IC50 [4]: 15.3 µM
Compound: COC1=C(OC)C(=O)C(C)=C(C)C1=O [compound II]
tumor a period after injection [1]: completely disappears
tumor volume versus control group [1]: obviously smaller
tumor weight ([1]; control 0.455±0.328): 0.039±0.028
cell migration [3]: not obvious
enzyme activity of MMP2 [5]: no enzyme activity
enzyme activities of MMP-2, MMP-9 and uPA [6]: decreased
